Literature values in PMC8158804 (ACS Omega, 2021).

conditions: critical aggregation concentration, fluorimetry, pure water

Row | Substance | CAC (−log M)
1 | AcGAAVILRRNH2 | 1.52 −log M
2 | AcIIIGVPGVGKKNH2 [IKK11] | 2.66 −log M
3 | AcIIIGVPGVGVPGVGKKNH2 [IKK16] | 3.13 −log M
4 | AcIIIKGVPGVGKNH2 [IK-K11] | 2.58 −log M
5 | AcIIIKGVPGVGVPGVGKNH2 [IK-K16] | 3.03 −log M
6 | V6K2GRGDS | 4.83 −log M

Now from value to substance:

Row | CAC (−log M) | Substance
7 | 2.10 −log M | AcGVPGVGKKNH2 [KK8]
8 | 2.10 −log M | AcKGVPGVGKNH2 [K-K8]
9 | 4.40 −log M | RFRF [[RF]2]
10 | 2.64 −log M | RFRFRF [[RF]3]
11 | 3.52 −log M | RFRFRFRF [[RF]4]
12 | 4.70 −log M | RFRFRFRFRF [[RF]5]

conditions: critical aggregation concentration, conductivity, pure water

Row | CAC (−log M) | Substance
13 | 3.15 −log M | Ac-GAVILEE
14 | 3.10 −log M | Ac-GAVILEE-NH2
15 | 2.99 −log M | AcLIIKNH2 [LI2K]
